Where no end group is shown, it is not given here.
How the values were obtained:
rat hippocampal cells = assay: Neurite outgrowth in rat hippocampal cell cultures, MAP-2 immunofluorescence; format: cell-based; details: seven days in culture, concentrations ranging from 100 nM to 100 μM, P<0.05
Experimental: In studies in vitro, cultures of rat hippocampal and cerebral cortical cells were established from embryonic day 18 pups. The cells were grown in culture wells ([…]), or the neurotrophic factors BDNF (brain-derived neurotrophic, 10 ng) and α-MSH (alpha-melanocyte stimulating hormone, 50 nM), or vehicle (isotonic saline). Each compound was added to the culture medium in a specified set of wells at the time the cells were plated and then again four days later when the culture media was removed and replaced with fresh media. On the seventh day in culture, the cells were treated with formalin, a tissue fixative. Subsequently, the cells were treated with a fluorescein-labeled antibody specific for microtubule associated protein-2 (MAP-2), a selective marker for dendritic processes. The amount of fluorescein-labeled antibody bound to MAP-2 (FITC signal) in each well was analytically determined. This information was then used to calculate the relative degree of neurite outgrowth for the cells in each well. […] FIG. 1 is a bar graph illustrating the effects of topiramate, BDNF,α-MSH and GPI on neurite outgrowth in rat hippocampal cell cultures, as measured by MAP-2 immunofluorescence. […]

[1] = test system: rat cerebral cortical cells; assay: Neurite outgrowth in rat cerebral cortical cell cultures, MAP-2 immunofluorescence; format: cell-based; details: p<0.05
Experimental: In studies in vitro, cultures of rat hippocampal and cerebral cortical cells were established from embryonic day 18 pups. The cells were grown in culture wells (plates) for seven days in the presence of various concentrations of topiramate ([…]), or the neurotrophic factors BDNF (brain-derived neurotrophic, 10 ng) and α-MSH (alpha-melanocyte stimulating hormone, 50 nM), or vehicle (isotonic saline). Each compound was added to the culture medium in a specified set of wells at the time the cells were plated and then again four days later when the culture media was removed and replaced with fresh media. On the seventh day in culture, the cells were treated with formalin, a tissue fixative. Subsequently, the cells were treated with a fluorescein-labeled antibody specific for microtubule associated protein-2 (MAP-2), a selective marker for dendritic processes. The amount of fluorescein-labeled antibody bound to MAP-2 (FITC signal) in each well was analytically determined. This information was then used to calculate the relative degree of neurite outgrowth for the cells in each well. […] FIG. 2 is a bar graph illustrating the effects of topiramate, BDNF,α-MSH and GPI on neurite outgrowth in rat cerebral cortical cell cultures, as measured by MAP-2 immunofluorescence. […]

rat facial nerve = assay: Rat facial nerve compression model of peripheral nerve injury, restoration of whisker movement; format: in vivo
Experimental: In the study in vivo, topiramate was evaluated in a rat facial nerve compression model of peripheral nerve injury. Rats were anesthetized, their skin and muscle excised to visualize the facial nerve. The nerve was injured near the stylom by compression with forceps. The wound was sutured and the rat allowed to recover before compound administration. The rats were divided into three groups: vehicle-treated, topiramate-treated (p.o., 20 mg/kg) and α-MSH-treated (s.c., 1 mg/kg). Compounds were administered twice daily for 14 days post-surgery. Facial nerve compression causes paralysis of the whisker muscle ipsilateral to the injury site. Restoration of whisker movement (lesioned versus non-lesioned side) was monitored daily for 14 days. Spontaneous recovery of whisker movement was detected as early as 10 days post-surgery with full recovery achieved by 13 days.
FIG. 3 is a line graph illustrating the effects of topiramate and α-MSH on the restoration of facial nerve function in rats, as measured by the rate whisker movement. The total rate of whisker movement on the side that the facial nerve was not injured was assigned a value of 100. Whisker movement on the side of the injured nerve is presented as a percent ±SEM of the whisker movement on the non-injured side. The rate of whisker movement was monitored visually by a skilled observer blinded to the treatment each rat received.

[2] = test system: simple and complex partial seizures and secondarily generalized seizures; details: human epilepsy; cited from earlier work
[3] = test system: rodent models of epilepsy; details: several rodent models of epilepsy; cited from earlier work
[4] = test system: animal model of kindled epilepsy; details: cited from earlier work

## CC1(C)O[C@@H]2[C@@H](CO[C@@]3(COS(N)(=O)=O)OC(C)(C)O[C@@H]23)O1 [topiramate, 2,3:4,5-bis-O-(1-methylethylidene)-β-D-fructopyranose sulfamate]
Rat hippocampal cells
  increase in neurite outgrowth (FITC signal, MAP-2) versus vehicle: significantly higher
[1]; 100 nM
  neurite outgrowth: 119 % of control
[1]; 10 μM
  neurite outgrowth: 119 % of control
Rat facial nerve; p.o., 20 mg/kg twice daily, day 11 post-surgery, vehicle=19%, p<0.001
  whisker movement recovery, day 11: 60%
Rat facial nerve; p.o., 20 mg/kg twice daily, day 12 post-surgery, vehicle=68%, p<0.01
  whisker movement recovery, day 12: 92%
[2]
  efficacy in treating seizures in clinical trials: effective as adjunctive therapy or as monotherapy
[3]
  block of seizures: effectively block seizures
[4]
  block of seizures: effectively block seizures

## α-MSH: alpha-melanocyte stimulating hormone, neurotrophic factor used as comparator (SYSMEHFRWGKPV; ends and bridges not checked; UniProt P01189 138-150, looked up)
Rat facial nerve; s.c., 1 mg/kg twice daily, days 11 and 12 post-surgery
  increase in whisker movement recovery versus vehicle, days 11 and 12: smaller, statistically nonsignificant increase

Reference: patent US6583172B1, “Anticonvulsant derivatives useful in treating chronic neurodegenerative disorders” (priority 1999, dated 2003)
